Data as given in patent publication US11066455B2, “Tmem100 peptides and variants thereof and their use in treating or preventing diseases or conditions” (The Johns Hopkins University, priority 2014, dated 2021).
Entries after “also recorded” stand apart in the source; their conditions may differ. Blank lines part the entries; values can stand above or below the molecule they belong to. * marks the point of attachment. Palmitoyl = CCCCCCCCCCCCCCCC(=O)*

B2: TRPV1 (endogenous, mouse DRG) (receptor, UniProt Q704Y3 1-839, looked up)
chain: MEKWASLDSDESEPPAQENSCPDPPDRDPNSKPPPAKPHIFATRSRTRLFGKGDSEEASPMDCPYEEGGLASCPIITVSSVVTLQRSVDGPTCLRQTSQDSVSTGVETPPRLYDRRSIFDAVAQSNCQELESLLSFLQKSKKRLTDSEFKDPETGKTCLLKAMLNLHNGQNDTIALLLDIARKTDSLKQFVNASYTDSYYKGQTALHIAIERRNMALVTLLVENGADVQAAANGDFFKKTKGRPGFYFGELPLSLAACTNQLAIVKFLLQNSWQPADISARDSVGNTVLHALVEVADNTADNTKFVTNMYNEILILGAKLHPTLKLEELTNKKGLTPLALAASSGKIGVLAYILQREIHEPECRHLSRKFTEWAYGPVHSSLYDLSCIDTCEKNSVLEVIAYSSSETPNRHDMLLVEPLNRLLQDKWDRFVKRIFYFNFFVYCLYMIIFTTAAYYRPVEGLPPYKLNNTVGDYFRVTGEILSVSGGVYFFFRGIQYFLQRRPSLKSLFVDSYSEILFFVQSLFMLVSVVLYFSHRKEYVASMVFSLAMGWTNMLYYTRGFQQMGIYAVMIEKMILRDLCRFMFVYLVFLFGFSTAVVTLIEDGKNNSLPVESPPHKCRGSACRPGNSYNSLYSTCLELFKFTIGMGDLEFTENYDFKAVFIILLLAYVILTYILLLNMLIALMGETVNKIAQESKNIWKLQRAITILDTEKSFLKCMRKAFRSGKLLQVGFTPDGKDDFRWCFRVDEVNWTTWNTNVGIINEDPGNCEGVKRTLSFSLRSGRVSGRNWKNFALVPLLRDASTRDRHSTQPEEVQLKHYTGSLKPEDAEVFKDSMAPGEK
notes: whole, on cells

How the values were obtained:
[1] = tested on: SNL-induced mechanical hyperalgesia in wild-type mice; assay: Spinal nerve ligation (SNL) in wild-type mice, mechanical hyperalgesia; format: in vivo, mouse; details: day 6 post ligation, 4 hrs post CPP; 5 μl of 2 mM intradermal in hindpaws
Method: In the wild-type mice with spinal nerve ligation (SNL), mechanical hyperalgesia is observed 6 days post ligation. Palmitoylated (Pal) CPP tailored to the C-terminus of human Tmem100-3Q alleviates neuropathic pain/mechanical allodynia in SNL. n=6, *p<0.05 at Day 6 4 hrs post CPP treatment. Scrambled: open bar; human P2-Mut (T100-Mut): black bar (FIG. 17). Peptides (5 μl of 2 mM) were injected intradermally in the hindpaws. Sequences for CPP used in the SNL experiment:
Human P2-Mut (T100-Mut) Pal-[…]-OH (SEQ ID NO: 7); Scrambled Pal-[…]-OH (SEQ ID NO: 19). Pal-palmitoylated in the N termini for each CPP.

[2] = tested on: paclitaxel (Taxol)-induced mechanical hyperalgesia in wild-type mice; assay: Paclitaxel-induced mechanical hyperalgesia; format: in vivo, mouse; details: F2 5 μl 100 μM intradermal injection
Method: Mice were placed in a transparent plastic box (4.5×5×10 cm) on a metal mesh and acclimatized for 30 minutes prior to testing. Each mouse was tested more than 5 times at a specific force manually, and the threshold was determined by the lowest force needed to elicit responses more than 50% of the time.
Mice were injected with paclitaxel (Sigma T7191) intraperitoneally at the dose of 6 mg/kg, as previously described (Materazzi et al., 2012). Seven days after paclitaxel injection, the mice were assayed with Von Frey methods for mechanical hyperalgesia, both before and four hours after injection of cell permeable peptides.

TRPA1 = tested on: T1, TRPA1; assay: Calcium imaging of HEK293T cells expressing TRPA1 and TRPV1 (MO or CA); format: cell-based; details: shortened CPP 2 μM; CA 10 μM; HEK293 TRPA1+TRPV1; vs scrambled
T1 construct: percentage of cells responsive to CA; other: shortened CPP 2 μM; CA 10 μM; HEK293 TRPA1+TRPV1; vs scrambled; percentage of cells responsive to MO; other: peptide 200 nM pre-treatment; 500 nM MO; HEK293T TRPA1+TRPV1; percentage of cells that respond to 100 nM MO and 10 μM CA; other: HEK293T TRPA1+TRPV1, Tmem100-3Q-transfected vs lacki; reduction in the percentage of cells responding to MO

[3] = tested on: neuropathic mechanical hypersensitivity in SNL rats; format: in vivo, rat; details: intrathecal 10 μl
From the text: An modified L5 SNL model was produced as described in previously (He et al., 2014; Shechter et al., 2013). Male Sprague-Dawley rats (200-350 g, Harlan, Indianapolis, Ind.) were anesthetized with 2% isoflurane. The left L5 spinal nerve was ligated with a 6-0 silk suture and cut distally. The muscle layer was closed with 4-0 chromic gut suture and the skin closed with metal clips. For intrathecal catheter implantation, a small slit was cut in the atlanto-occipital membrane of rats, into which a saline-filled piece of PE-10 tubing (6-7 cm) was inserted (He et al., 2014). […] Hypersensitivity to punctuate mechanical stimulation was determined with the up-down method by using a series of von Frey filaments (0.38-15.1 g) applied for 4-6 seconds to the test area on the plantar surface of the hindpaw (Chaplan et al., 1994; He et al., 2014). The PWT was determined according to the formula provided by Dixon (Dixon, 1980). […] HC-030031 was purchased from Tocris Bioscience (Bristol, UK). Both drugs were dissolved in 10% dimethylsulfoxide (DMSO), 5% Tween 80 and 85% sterile saline solution. The final working solution which was injected by intrathecal route contained <1% DMSO. The number of animals used in each study was based on experience with similar studies and power analysis calculations. Animals were randomized to the different treatment groups and blinded the experimenter to drug treatment to reduce selection and observation bias. After the experiments were completed, no data point was excluded. STATISTICA 6.0 software (StatSoft, Inc., Tulsa, Okla.) was used to conduct all statistical analyses. The Tukey honestly significant difference (HSD) post-hoc test was used to compare specific data points. Bonferroni correction was applied for multiple comparisons. Two-tailed tests were performed, and data are expressed as mean±SEM; P<0.05 was considered significant in all tests.
The sequence from the last 28 amino acids of the C-terminus of the Tmem100-3Q mutant protein was synthesized and myristoylated at its N-terminus (myr-[…]-COOH) (SEQ ID NO: 8) by Twentyfirst Century Biochemicals. […] For the calcium imaging assay, the peptides were added to the calcium imaging buffer with a final concentration of 200 nM and incubated for at least […] at room temperature. For the mice behavioral assays, the peptides (5 μL, 2 mM) were injected subcutaneously in the hindpaw at least 30 minutes before testing. For the rat behavior assays, human T100-3Q (h-T100), a palmitoylated cell permeable peptide mutated based on the C terminus of human sequence in Tmem100, was applied. The sequence is Palmitoyl-[…]-COOH (SEQ ID NO: 7).

[4] = tested on: ongoing neuropathic pain in SNL rats; assay: Conditioned place preference test for ongoing pain in SNL rats; format: in vivo, rat; details: intrathecal 50 μM, 10 μl; for conditioned place preference: time in drug-paired chamber, SNL rats: scramble peptide-paired chamber as comparison
From the text: Ongoing, or spontaneous, pain, which is most bothersome to patients, is difficult to treat and difficult to study in animals. The conditioned place preference test has been successfully developed to reveal the presence of non-evoked, ongoing pain and pain relief based on the preference of an animal for the context paired with a pain-relief treatment. The conditioned place preference can also capture the aversive aspects of pain. Strikingly, many studies have shown that the rodent conditioned place preference test accurately reflects the effectiveness of human clinical treatments. Therefore, this test is a powerful approach to investigate the potential effectiveness of new treatments and mechanisms for relief of ongoing pain. Two previous studies have examined the role of TRPA1 in ongoing pain by the conditioned place preference test. […] Because the antagonists used in those studies (HC030031 and Chem5861528) target TRPA1 monomers, it is possible that T100-Mut can inhibit ongoing pain by modulating the TRPA1/V1 complex. This possibility was tested in rodents with SNL-induced ongoing pain using the conditioned place preference test. […] Systemic administration of gabapentin, an analgesic that is known to alleviate neuropathic pain, was used as a positive control (FIG. 16B).

TRPV1-CFP [5] = assay: FRET with TIRF microscopy, COS-7 cells, Tmem100-3Q co-expressed
TRPV1-CFP [6] = assay: FRET with TIRF microscopy, COS-7 cells, wild-type Tmem100 co-expressed
[7] = target: B2; assay: co-immunoprecipitation from mouse DRG lysates
From the text: (§1) All groups were transfected with TRPV1-CFP and TRPA1-YFP except for the Rho-pYC (as a positive control for maximal effects of the system) and M-V1 (negative control) groups, where Rho-pYC and membrane-tethered YFP+TRPV1-CFP, respectively, were transfected instead. FRET efficiencies were highest in Tmem100-3Q-transfected cells (A1-V1-3Q), followed by the empty vector-transfected groups (A1-V1), and were lowest in cells transfected with wild-type Tmem100 (A1-V1-WT). The statistic is one-way ANOVA (*$p<0.05$; $p<0.01$, *$p<0.001$). Data are presented as mean±SEM. FIG. 5F is a table showing a summary of the data from FIG. 5E.
(§2) DRG from all levels or CHO cells transfected with Trpv1, Trpa1, and Tmem100-myc were used. Whole cell DRG or CHO cells lysates were generated 24 h after transfection, and Co-IP with either 1 µg myc antibody (EMD Millipore) or 1 µg TRPV1 antibody (Santa Cruz, R130) as described (Akopian et al., 2007) Immunoprecipitants and cell lysate aliquots were resolved by SDS-PAGE and immunoblotted with 1:1000 anti-TRPV1 antibody (Santa Cruz, R130), 1:500 anti-Tmem100 antibody, 1:1000 anti-TRPA1 (Novus), or 1:1000 anti-myc (EMD Millipore). Secondary antibodies for visualization included donkey anti-rabbit and anti-mouse HRP-conjugated antibodies (GE Biosciences). […]

[8] = target: T2, TRPA1 (endogenous, mouse DRG) (mouse, UniProt Q8BLA8 1-1125); assay: co-immunoprecipitation from mouse DRG lysates
T2 construct: whole, on cells
From the text: as §1, §2

[9] = target: T2, TRPA1 (endogenous, mouse DRG); assay: co-IP with Tmem100 and TRPV1 antibodies, Western blot, mouse DRG lysates
From the text: as §1, §2

T2 sequence (Q8BLA8 whole entry): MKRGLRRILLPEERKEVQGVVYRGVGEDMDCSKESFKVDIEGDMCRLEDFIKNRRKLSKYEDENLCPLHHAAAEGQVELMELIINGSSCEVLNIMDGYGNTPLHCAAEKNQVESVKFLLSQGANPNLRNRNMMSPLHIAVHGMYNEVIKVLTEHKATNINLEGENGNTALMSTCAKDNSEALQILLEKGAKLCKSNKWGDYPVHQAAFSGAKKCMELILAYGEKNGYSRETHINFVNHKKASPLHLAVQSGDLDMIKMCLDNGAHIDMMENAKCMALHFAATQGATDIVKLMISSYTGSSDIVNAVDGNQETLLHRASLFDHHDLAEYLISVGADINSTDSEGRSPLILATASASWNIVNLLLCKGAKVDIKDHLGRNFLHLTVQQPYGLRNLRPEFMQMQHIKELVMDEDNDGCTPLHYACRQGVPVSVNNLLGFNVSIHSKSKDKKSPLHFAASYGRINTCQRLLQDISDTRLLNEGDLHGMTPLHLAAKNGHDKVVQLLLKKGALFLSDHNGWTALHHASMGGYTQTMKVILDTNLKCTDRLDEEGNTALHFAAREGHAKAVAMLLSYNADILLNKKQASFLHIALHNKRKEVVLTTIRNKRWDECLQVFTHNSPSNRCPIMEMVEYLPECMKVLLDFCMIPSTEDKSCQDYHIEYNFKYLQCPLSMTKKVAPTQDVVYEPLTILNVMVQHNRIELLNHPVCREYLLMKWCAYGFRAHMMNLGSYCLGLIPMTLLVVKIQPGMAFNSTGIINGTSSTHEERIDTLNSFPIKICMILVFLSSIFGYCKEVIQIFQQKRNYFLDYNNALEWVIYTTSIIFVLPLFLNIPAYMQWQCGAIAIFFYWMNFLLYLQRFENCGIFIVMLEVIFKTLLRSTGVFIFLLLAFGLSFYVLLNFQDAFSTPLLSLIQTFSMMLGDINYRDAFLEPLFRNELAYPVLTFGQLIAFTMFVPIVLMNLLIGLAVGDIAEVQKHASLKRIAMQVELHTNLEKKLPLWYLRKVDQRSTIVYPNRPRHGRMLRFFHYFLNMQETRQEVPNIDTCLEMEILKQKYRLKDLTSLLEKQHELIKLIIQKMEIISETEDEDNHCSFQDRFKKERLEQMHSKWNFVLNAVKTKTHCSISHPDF

Molecule: F2: shortened CPP consisting of the first 18 amino acids of the T100-Mut (SEQ ID NO: 17) (WKVRQRNKKVQQQESQTA; listed as Mus musculus)
SNL-induced mechanical hyperalgesia / allodynia in mice [1]: blocked
paclitaxel-induced mechanical hyperalgesia [2]: effective
percentage of cells responsive to CA (TRPA1): significantly reduced; also recorded: same inhibitory effects

Molecule: Palmitoyl-WKVRQRSKKAQQQESQTALVANQRSLFA-COOH (Palmitoyl-WKVRQRSKKAQQQESQTALVANQRSLFA-OH; SMILES CCCCCCCCCCCCCCCC(=O)N[C@@H](Cc1c[nH]c2ccccc12)C(=O)N[C@@H](CCCCN)C(=O)N[C@H](C(=O)N[C@@H](CCCNC(=N)N)C(=O)N[C@@H](CCC(N)=O)C(=O)N[C@@H](CCCNC(=N)N)C(=O)N[C@@H](CO)C(=O)N[C@@H](CCCCN)C(=O)N[C@@H](CCCCN)C(=O)N[C@@H](C)C(=O)N[C@@H](CCC(N)=O)C(=O)N[C@@H](CCC(N)=O)C(=O)N[C@@H](CCC(N)=O)C(=O)N[C@@H](CCC(=O)O)C(=O)N[C@@H](CO)C(=O)N[C@@H](CCC(N)=O)C(=O)N[C@H](C(=O)N[C@@H](C)C(=O)N[C@@H](CC(C)C)C(=O)N[C@H](C(=O)N[C@@H](C)C(=O)N[C@@H](CC(N)=O)C(=O)N[C@@H](CCC(N)=O)C(=O)N[C@@H](CCCNC(=N)N)C(=O)N[C@@H](CO)C(=O)N[C@@H](CC(C)C)C(=O)N[C@@H](Cc1ccccc1)C(=O)N[C@@H](C)C(=O)O)C(C)C)[C@@H](C)O)C(C)C; listed as Homo sapiens) [h-T100]
contralateral PWT after drug injection [3]: no significant change
ipsilateral paw withdrawal threshold (PWT) vs pre-drug ([3]; h-T100 10-100 μM, HC-030031 10-200 μM, scrambled 100 μM): dose-dependently increased
SNL-induced mechanical hyperalgesia / allodynia in mice [1]: alleviates
conditioned place preference: time in drug-paired chamber, SNL rats ([4]; listed as P2-Mut): increased
conditioned place preference: time in drug-paired chamber, SNL rats ([4]; listed as human T100-Mut): induced robust the conditioned place preference
chamber preference in sham-operated rats ([4]; sham-operated): did not induce chamber preference

increase of the TRPA1-TRPV1 interaction (FRET efficiency) against cells expressing only TRPA1-V1 (TRPV1-CFP [5]): 43%
decrease of FRET efficiency against cells expressing only TRPA1-V1 (TRPV1-CFP [6]): 34%
Molecule: TRPA1-YFP (receptor)

binding result [7]: binds
binding result [8]: binds
B1: Tmem100 (wild-type, full-length, mouse) (other)
chain: MTEESTKENLGAPKSPTPVTMEKNPKREVVVTTGPLVSEVQLMAATGGAELSCYRCIIPFAVVVFITGIVVTAVAYSFNSHGSIISIFGLVLLSSGLFLLASSALCWKVRQRNKKVKRRESQTALVVNQRCLFA
notes: also called Pirt2; T100

Molecule: B2
binding result [9]: binds
